Source: patent US20090092553A1, “MONOCARBOXYLATE TRANSPORTERS EXPRESSED IN CANCER CELLS” (Xenoport,Inc., priority 2003, published 2009)
Substitutions are numbered along the chain they refer to.

How the values were obtained:
[1] = target: T1, MCT1 (Homo sapiens, UniProt P53985); test: HEK cell intracellular pH (BCECF) / phloretin inhibition assay; type: cell-based; conditions: HEK cells; for effect on the intracellular pH response to lactate: applied together with lactate
T1 sequence (P53985 1-500): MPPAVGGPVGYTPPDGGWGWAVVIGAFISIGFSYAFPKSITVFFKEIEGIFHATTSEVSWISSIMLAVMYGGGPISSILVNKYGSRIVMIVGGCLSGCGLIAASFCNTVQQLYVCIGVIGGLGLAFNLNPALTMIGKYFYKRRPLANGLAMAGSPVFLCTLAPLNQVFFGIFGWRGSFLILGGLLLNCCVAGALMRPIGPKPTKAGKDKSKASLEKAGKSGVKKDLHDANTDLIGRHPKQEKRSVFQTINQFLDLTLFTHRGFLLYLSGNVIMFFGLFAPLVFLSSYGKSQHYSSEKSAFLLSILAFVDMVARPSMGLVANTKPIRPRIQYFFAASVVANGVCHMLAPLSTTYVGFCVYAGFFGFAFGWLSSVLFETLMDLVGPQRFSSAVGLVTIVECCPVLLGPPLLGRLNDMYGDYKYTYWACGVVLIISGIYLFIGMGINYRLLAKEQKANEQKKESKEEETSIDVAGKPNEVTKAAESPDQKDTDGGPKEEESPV
Source text: Because MCT1 transports both the carboxylate anion and the corresponding proton, a pH measuring assay was developed to measure net transport of protons into the cytoplasm. Intracellular pH can be measured by a pH-sensitive fluorescent dye such as BCECF. […] In the phloretin inhibition assay, the HEK cells are first exposed to a plurality of solutions containing various concentrations of the test compound (in FIG. 3, the model test compound is lactate) and then to the same solutions to which have been added a set (0.25 mM) concentration of phloretin. Thus, FIG. 3 is a graph of lactate concentration ([L]) versus the percent of maximum pH change found with administration of the highest concentration of the test compound (lactate) alone. […] This is because MCT1 co-transports lactate and a proton into the HEK cells, causing their internal pH to decrease. This pH lowering effect is shown by the characteristic reverse-S-shaped dose response upper curve in FIG. 3. When the cells are exposed to the solutions containing both lactate and phloretin, the phloretin inhibits the lactate uptake by MCT1 and there is little pH change in the cells, as shown by the relatively flat lower curve in FIG. 3. The phloretin inhibition assay can also be used to determine those carboxylic acids that are actively transported MCT substrates from those that are only passively absorbed across the cell membrane. In the latter case, when a passive absorbed acid is applied to HEK cells, there is an intracellular acidification, which occurs both with and without phloretin.
FIG. 4 is a graph of 2-TPGA concentration ([2-TPGA]) versus the relative percent decrease in intracellular pH compared to a standard decrease in intracellular pH caused by exposure of the cells to 20 mM lactate solution. When 0.25 mM phloretin was applied to these cells in addition to 2-TPGA, MCT1 transport was blocked and no significant pH change was detected.
FIG. 5 is a graph of sulfasalazine concentration ([sulfasalazine]) versus the relative percent decrease in intracellular pH compared to a standard decrease in intracellular pH caused by exposure of the cells to 20 mM lactate solution.

[2] = target: T2, MCT4 (Homo sapiens, UniProt O15427); test: Xenopus oocyte ROMK electrophysiological pH assay, MCT4; type: cell-based; parameters: The complete open reading frame was cloned into a Xenopus oocyte expression plasmid; expressed in transfected cells; host or cells: Xenopus oocytes injected with cRNA
T2 sequence (O15427 1-465): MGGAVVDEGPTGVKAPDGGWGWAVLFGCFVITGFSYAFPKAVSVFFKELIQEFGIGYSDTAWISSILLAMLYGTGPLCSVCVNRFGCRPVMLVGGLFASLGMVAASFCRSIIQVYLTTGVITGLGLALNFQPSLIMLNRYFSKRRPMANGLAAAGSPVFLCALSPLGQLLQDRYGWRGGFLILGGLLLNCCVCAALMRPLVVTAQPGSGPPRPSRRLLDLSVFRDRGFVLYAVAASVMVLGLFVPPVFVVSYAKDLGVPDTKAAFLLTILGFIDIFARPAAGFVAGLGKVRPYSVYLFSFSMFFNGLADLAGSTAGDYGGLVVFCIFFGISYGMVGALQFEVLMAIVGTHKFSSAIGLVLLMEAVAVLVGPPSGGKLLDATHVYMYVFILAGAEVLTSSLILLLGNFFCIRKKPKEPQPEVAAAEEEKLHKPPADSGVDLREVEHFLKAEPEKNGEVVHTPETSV

[3] = target: T1, MCT1; conditions: cited from earlier work
[4] = target: T2, MCT4; conditions: cited from earlier work
[5] = target: T3, MCT1 (Homo sapiens, UniProt P53985, D490E); test: Xenopus oocyte ROMK electrophysiological pH assay, MCT1; type: cell-based
T3 sequence (P53985 1-500 D490E): T1 sequence (P53985 1-500) with D490E

Which “substrate status from intracellular pH change with and without 0.25 mM phloretin” value ([1]; FIG. 4) does the source give for `O=C(O)C(=O)c1cccs1` [Compound 2-TPGA, 2-thiophene glyoxylic acid] here?
Its value is “substrate for, and is actively transported by, MCT1”.

For `CC(O)C(=O)O` (centres unmarked) [lactate], which “effect on ROMK potassium current” value ([2]; oocytes co-expressing ROMK and MCT4, 10 mM lactate solution) is on record?
Its value is “strong inhibition of the potassium current”.

What about the “intracellular pH change when applied alone” value [1] of the same compound?
The value was “dose-dependent intracellular acidification”.

What about the affinity for lactate [3] of the same compound?
Its affinity for lactate is roughly 2 mM.

What about the affinity for lactate [4] of the same compound?
Its affinity for lactate is roughly 40 mM.

And the “effect on ROMK potassium current” value ([5]; oocytes co-expressing ROMK and MCT1, 10 mM lactate solution)?
The value was “strong inhibition of the potassium current”.

For `O=C(CCc1ccc(O)cc1)c1c(O)cc(O)cc1O` [phloretin], which “effect of co-application with lactate on the potassium current” value ([2]; oocytes co-expressing ROMK and MCT4, 350 μM phloretin and 10 mM lactate) is on record?
The value was “completely blocks the effect of lactate on the potassium current”.

What about the “intracellular pH change when applied alone” value [1] of the same compound?
Its value is “does not cause an intracellular pH change”.

What about the “effect on the intracellular pH response to lactate” value [1] of the same compound?
Its value is “completely blocks the lactate response”.

And the “effect of co-application with lactate on the potassium current” value ([5]; oocytes co-expressing ROMK and MCT1, 350 μM phloretin and 10 mM lactate)?
The value was “completely blocks the effect of lactate on the potassium current”.

Which “effect on the intracellular pH response to lactate” value [1] does the source give for `O=C(O)c1cc(/N=N/c2ccc(S(=O)(=O)Nc3ccccn3)cc2)ccc1O` [sulfasalazine] here?
The value was “inhibitor of MCT1”.
